Experimental findings from patent US5229364A, “Polypeptides derived from the human immunodeficiency virus endonuclease protein” (priority 1991, dated 1993) are described below.

For test [1], the system named is HIV-1 antibody positive sera. The test can be described thus: Peptide ELISA with HIV-1 antibody positive sera. The test is classed as binding, human. Particulars: 33 HIV-1 antibody positive sera diluted 1/100; peptide 1 μg/well; absorbance 490 nm; positive = above mean of negative sera plus three S.D. The method, then:
FIG. 1 illustrates the reactivity of sera from HIV-1 infected and non-infected individuals to selected HIV-1 endonuclease peptides. Thirty-three HIV-1 antibody positive sera (filled symbols) and fourteen control sera (open symbols) were analyzed in ELISA with peptides representing the HIV-1 endonuclease protein (6). Amino acid sequences were derived from the HIV-1 consensus sequence and are shown at the bottom of the picture (abscissa). Uppercase letters indicate consensus amino acids, whereas less conserved amino acids are indicated with lowercase letters. Absorbance values at 490 nm are indicated in the ordinate. Three of the sera belonged to infected individuals classified as CDC 1 (7), thirteen to CDCII, seven to CDC III and ten to CDC IV. Becaused reactivity to other regions than the one represented by End 10 was very low, only results of a selected number of peptides is shown in the figure. FIG. 2 illustrates the reactivity of HIV-1 antobidy positive and control sera to an End 10 set of 18 glycine (G) substitution peptides. Filled symbols show mean optical density for 13 antibody positive sera. The corresponding values for four negative sera are shown by open symbols. Vertical bars represent standard deviation values. The mean reactivity to intact peptide End 10 was chosen to represent 100% of activity and reactivity to the substituted peptides is expressed in relation to this. […]
Background: ELISA stands for enzyme-linked immunosorbent assay.

For test [2], the system named is sera obtained from HIV-2 infected individuals. The test can be described thus: Peptide ELISA with sera from HIV-2 infected individuals. In kind it is binding, human. Particulars: data not shown. The method, then: The peptide ELISA was performed as follows. Microtiter plate wells (Linbro, Flow, Scotland) were coated with peptide (1 μg/well) resuspended in 0.01 M carbonate buffer at room temperature overnight. Thereafter, the plates wells were blocked with 5% bovine serum albumin. 100 μl of reagents were used per well. Five washings (0.9% NaCl and 0.005% Tween 20 in distilled water) were performed between the different steps of the ELISA procedure. Positive sera and controls were diluted 1/100 and incubated in the plates for one hour at 37° C. Peroxidase conjugated immunoglobulins to human IgG y-chains (Dakopatts; Denmark) diluted 1/2000 were added (1 hour, 37° C.). 1,2 phenylene diaminedihydrochloride was used as substrate. The reaction was allowed to continue for ten minutes and then stopped with 3 M H2 SO4. […] The mean optic density plus three times S.D. for peptide End 10 was 0.8.
The corresponding region in the genome of HIV-2 (Table 1) and simian immunodeficiency virus (SIV) is also very conserved. […] Some amino-acid stretches are, however, completely conserved among the different serotypes. Because of this observation, the HIV-1 peptide End 10 was also tested with 30 sera obtained from HIV-2 infected individuals.

“ETGQETAYFLLKLAGRWPVK [End 10, 20-residue peptide of HIV-1 endonuclease, starting at position 655 of the pol consensus]”: the “reactivity in ELISA with HIV-1 antibody positive sera” value in test [1] is “reacted strongly”. Moreover, in test [2] (30 HIV-2 sera), the “intensity of the reactions with HIV-2 sera relative to HIV-1 sera” value was “comparable”. In addition, in test [2] (30 sera from HIV-2 infected individuals), the “reactivity in ELISA with HIV-2 sera” value is on record as “reacted strongly”.
